Experimental data reported in patent US20040033273A1, “Withasol and methods of use” (AyurCore, Inc., priority 2001, published 2004).

Test system: BALB/c mouse implanted with ascitic sarcoma (S-180), CP treated
Details: for Hb / Platelet Count (×10^3/mcl) / RBC Count (×10^6/mcl) / WBC Difference Count (%) Lymphocytes / WBC Difference Count (%) Polymorph / WBC Total Count (×10^3/mcl): CP +: CP 150 mg/kg ip day 11, coded drug 100 mg/kg (vehicle for CP alone) po day 1-15, blood day 16; for Difference in Weight (g) from Day 1 to 16: CP +: S-180 bearing antigen-challenged mice, CP 150 mg/kg ip day 11, coded drug 100 mg/kg (vehicle for CP alone) po day 1-15; for change in body weight / change in HA antibody titers / change in HL antibody titers / change in hemoglobin content / change in platelet counts / change in red cell counts / change in white cell differential counts / change in white cell total counts: vs group IV (tumor +, CP +, vehicle), drug po day 1-15, CP 150 mg/kg ip day 11, ANOVA; for change in HA antibody titers / change in HL antibody titers / change in hemoglobin content / change in platelet counts / change in red cell counts / change in white cell differential counts / change in white cell total counts: day 16
[1] = Tumor +, CP +: CP 150 mg/kg ip day 11, coded drug 100 mg/kg (vehicle for CP alone) po day 1-15, serum day 16, mean +/- SD
[2] = tumor-bearing CP-treated mice, vs CP alone

| SMILES | Hb (Tumor +, mean +/- SD) | Platelet Count (×10^3/mcl) (Tumor +, mean +/- SD) | RBC Count (×10^6/mcl) (Tumor +, mean +/- SD) | WBC Difference Count (%) Lymphocytes (Tumor +, mean +/- SD) | WBC Difference Count (%) Polymorph (Tumor +, mean +/- SD) | WBC Total Count (×10^3/mcl) (Tumor +, mean +/- SD) | HA Titre (Log2) [1] | Difference in Weight (g) from Day 1 to 16 (Tumor +, mean +/- SD) | effect on CP-induced immunosuppression / immunostimulatory activity (conclusion) [2] | effect on CP-induced myelosuppression (conclusion) [2] | change in body weight | change in HA antibody titers | change in HL antibody titers | change in hemoglobin content | change in platelet counts | change in red cell counts | change in white cell differential counts | change in white cell total counts | CF Titre (Log2) [1] | other activity indicated (conclusion) [2] |
| --- | --- | --- | --- | --- | --- | --- | --- | --- | --- | --- | --- | --- | --- | --- | --- | --- | --- | --- | --- | --- |
| O=S(=O)(O)CCS [Mesna] | 14.08 ± 1.689 g/dL | 608.83 +/− 239.813 ×10^3/mcl | 4.12 +/− 0.609 ×10^6/mcl | 62.42 +/− 9.902% | 37.58 +/− 9.902% | 3.67 +/− 1.218 ×10^3/mcl | 2.17 +/− 0.408 Log2 | -2.5 ± 1.049 g | no effect on body weight and CP-induced myelo and immunosuppression | no effect on body weight and CP-induced myelo and immunosuppression | no significant change | no significant change | no significant change | no significant change | no significant change | no significant change | no significant change | no significant change |  |  |
| O=C1O[C@H]([C@@H](O)CO)C(O)=C1O [Drug T, Vitamin C] | 15.37 ± 1.481 g/dL | 822.67 +/− 234.142 ×10^3/mcl | 4.25 +/− 0.661 ×10^6/mcl | 63.30 +/− 6.266% | 36.70 +/− 6.266% | 7.13 +/− 0.949 ×10^3/mcl | 5.33 +/− 0.516 Log2 | -2.67 ± 1.751 g | protective effect on CP-induced myelo and immunosuppression | protective effect on CP-induced myelo and immunosuppression | no significant change | significantly increased | significantly increased | significantly increased | No significant change | No significant change | no significant change | significantly increased | 5.67 +/− 0.516 Log2 | mild hematinic activity |
